# Laboratory results published in patent publication US8410302B2, “Methoxyimino compounds and fungicide composition comprising same” (Kyung Nong Corporation, priority 2007, dated 2013).
# Experiments:
# Puccinia recondita = experiment: Fungicidal activity against wheat leaf rust (WLR) disease, control value; assay type: in vivo; settings: wheat leaf rust
# Botrytis cinerae = experiment: Fungicidal activity against cucumber gray mold rot (CGM) disease, control value; assay type: in vivo; settings: 100 ppm, cucumber gray mold rot
# Rhizoctonia solani AG-1 = experiment: Fungicidal activity against rice sheath blight (RSB) disease, control value; settings: for RSB control value (C.V.): rice sheath blight
# Phytophthora infestans = experiment: whole plant or invertebrate; assay type: in vivo; settings: for TLB control value (C.V.): tomato late blight
# Erysiphae graminis = experiment: Fungicidal activity against barley powdery mildew (BPM) disease, control value; assay type: in vivo; settings: barley powdery mildew
# [1] = system: Pyricularia oryzae Carvara KA301; experiment: whole plant or invertebrate; assay type: in vivo; settings: for RCB control value (C.V.): rice blast
# [2] = Rhizoctonia solani, AG1, in Oryza sativa, read-out: RSB control value (C.V.)
# [3] = Phytophthora infestans, in Solanum lycopersicum, read-out: TLB control value (C.V.)
# [4] = Pyricularia oryzae, read-out: RCB control value (C.V.)
smiles,measurement,setting,value
"CNC(=O)/C(=N/OC)c1ccccc1CON=C(C)c1ccc(C=C(F)Cl)cc1 [Example 34, (E)-2-[[[[[2-[4-(2-chloro-2-fluorovinyl)phenyl](1-methyl)methylidene]amino]oxy]methyl]phenyl]-2-methoxyimino-N-methylacetamide]",WLR control value (C.V.),Puccinia recondita; 100 ppm,72%
same,CGM control value (C.V.),Botrytis cinerae,40%
same,RSB control value (C.V.),Rhizoctonia solani AG-1; 100 ppm,15%
same,TLB control value (C.V.),Phytophthora infestans; 50 ppm,35%
same,TLB control value (C.V.),Phytophthora infestans; 100 ppm,98%
same,BPM control value (C.V.),Erysiphae graminis; 100 ppm,60%
same,RCB control value (C.V.),[1]; 50 ppm,90%
same,RCB control value (C.V.),[1]; 100 ppm,95%
"CO/N=C(/C(=O)OC)c1ccccc1CON=C(C)c1cccc(C=C(Cl)Br)c1 [Example 35, methyl-(E)-2-[[[[[2-[3-(2-bromo-2-chlorovinyl)phenyl](1-methyl)methylidene]amino]oxy]methyl]phenyl]-2-methoxyiminoacetate]",WLR control value (C.V.),Puccinia recondita; 2 ppm,100%
same,WLR control value (C.V.),Puccinia recondita; 10 ppm,100%
same,WLR control value (C.V.),Puccinia recondita; 50 ppm,100%
same,WLR control value (C.V.),Puccinia recondita; 100 ppm,100%
same,CGM control value (C.V.),Botrytis cinerae,50%
same,RSB control value (C.V.),Rhizoctonia solani AG-1; 100 ppm,10%
same,TLB control value (C.V.),Phytophthora infestans; 10 ppm,10%
same,TLB control value (C.V.),Phytophthora infestans; 50 ppm,90%
same,TLB control value (C.V.),Phytophthora infestans; 100 ppm,100%
same,BPM control value (C.V.),Erysiphae graminis; 2 ppm,15%
same,BPM control value (C.V.),Erysiphae graminis; 10 ppm,60%
same,BPM control value (C.V.),Erysiphae graminis; 50 ppm,93%
same,BPM control value (C.V.),Erysiphae graminis; 100 ppm,95%
same,RCB control value (C.V.),[1]; 2 ppm,70%
same,RCB control value (C.V.),[1]; 10 ppm,100%
same,RCB control value (C.V.),[1]; 50 ppm,100%
same,RCB control value (C.V.),[1]; 100 ppm,100%
"CNC(=O)/C(=N/OC)c1ccccc1CON=C(C)c1cccc(C=C(Cl)Br)c1 [Example 36, (E)-2-[[[[[2-[3-(2-bromo-2-chlorovinyl)phenyl](1-methyl)methylidene]amino]oxy]methyl]phenyl]-2-methoxyimino-N-methylacetamide]",WLR control value (C.V.),Puccinia recondita; 2 ppm,100%
same,WLR control value (C.V.),Puccinia recondita; 10 ppm,100%
same,WLR control value (C.V.),Puccinia recondita; 50 ppm,100%
same,WLR control value (C.V.),Puccinia recondita; 100 ppm,100%
same,CGM control value (C.V.),Botrytis cinerae,65%
same,RSB control value (C.V.),Rhizoctonia solani AG-1; 2 ppm,67%
same,RSB control value (C.V.),Rhizoctonia solani AG-1; 10 ppm,90%
same,RSB control value (C.V.),Rhizoctonia solani AG-1; 50 ppm,98%
same,RSB control value (C.V.),Rhizoctonia solani AG-1; 100 ppm,100%
same,TLB control value (C.V.),Phytophthora infestans; 2 ppm,30%
same,TLB control value (C.V.),Phytophthora infestans; 10 ppm,80%
same,TLB control value (C.V.),Phytophthora infestans; 50 ppm,100%
same,TLB control value (C.V.),Phytophthora infestans; 100 ppm,100%
same,BPM control value (C.V.),Erysiphae graminis; 2 ppm,100%
same,BPM control value (C.V.),Erysiphae graminis; 10 ppm,100%
same,BPM control value (C.V.),Erysiphae graminis; 50 ppm,100%
same,BPM control value (C.V.),Erysiphae graminis; 100 ppm,100%
same,RCB control value (C.V.),[1]; 2 ppm,100%
same,RCB control value (C.V.),[1]; 10 ppm,100%
same,RCB control value (C.V.),[1]; 50 ppm,100%
same,RCB control value (C.V.),[1]; 100 ppm,100%
"CO/N=C(/C(=O)OC)c1ccccc1CON=C(C)c1ccc(C=C(Cl)Br)cc1 [Example 37, methyl-(E)-2-[[[[[2-[4-(2-bromo-2-chlorovinyl)phenyl](1-methyl)methylidene]amino]oxy]methyl]phenyl]-2-methoxyiminoacetate]",WLR control value (C.V.),Puccinia recondita; 2 ppm,100%
same,WLR control value (C.V.),Puccinia recondita; 10 ppm,100%
same,WLR control value (C.V.),Puccinia recondita; 50 ppm,100%
same,WLR control value (C.V.),Puccinia recondita; 100 ppm,100%
same,CGM control value (C.V.),Botrytis cinerae,50%
same,RSB control value (C.V.),Rhizoctonia solani AG-1; 100 ppm,90%
same,TLB control value (C.V.),Phytophthora infestans; 10 ppm,10%
same,TLB control value (C.V.),Phytophthora infestans; 50 ppm,90%
same,TLB control value (C.V.),Phytophthora infestans; 100 ppm,100%
same,BPM control value (C.V.),Erysiphae graminis; 2 ppm,35%
same,BPM control value (C.V.),Erysiphae graminis; 10 ppm,90%
same,BPM control value (C.V.),Erysiphae graminis; 50 ppm,93%
same,BPM control value (C.V.),Erysiphae graminis; 100 ppm,95%
same,RCB control value (C.V.),[1]; 2 ppm,75%
same,RCB control value (C.V.),[1]; 10 ppm,90%
same,RCB control value (C.V.),[1]; 50 ppm,100%
same,RCB control value (C.V.),[1]; 100 ppm,100%
"CNC(=O)/C(=N/OC)c1ccccc1CON=C(C)c1ccc(C=C(Cl)Br)cc1 [Example 38, (E)-2-[[[[[2-[4-(2-bromo-2-chlorovinyl)phenyl](1-methyl)methylidene]amino]oxy]methyl]phenyl]-2-methoxyimino-N-methylacetamide]",WLR control value (C.V.),Puccinia recondita; 2 ppm,100%
same,WLR control value (C.V.),Puccinia recondita; 10 ppm,100%
same,WLR control value (C.V.),Puccinia recondita; 50 ppm,100%
same,WLR control value (C.V.),Puccinia recondita; 100 ppm,100%
same,CGM control value (C.V.),Botrytis cinerae,65%
same,RSB control value (C.V.),Rhizoctonia solani AG-1; 2 ppm,80%
same,RSB control value (C.V.),Rhizoctonia solani AG-1; 10 ppm,95%
same,RSB control value (C.V.),Rhizoctonia solani AG-1; 50 ppm,98%
same,RSB control value (C.V.),Rhizoctonia solani AG-1; 100 ppm,100%
same,TLB control value (C.V.),Phytophthora infestans; 2 ppm,30%
same,TLB control value (C.V.),Phytophthora infestans; 10 ppm,80%
same,TLB control value (C.V.),Phytophthora infestans; 50 ppm,100%
same,TLB control value (C.V.),Phytophthora infestans; 100 ppm,100%
same,BPM control value (C.V.),Erysiphae graminis; 2 ppm,95%
same,BPM control value (C.V.),Erysiphae graminis; 10 ppm,98%
same,BPM control value (C.V.),Erysiphae graminis; 50 ppm,100%
same,BPM control value (C.V.),Erysiphae graminis; 100 ppm,100%
same,RCB control value (C.V.),[1]; 2 ppm,100%
same,RCB control value (C.V.),[1]; 10 ppm,100%
same,RCB control value (C.V.),[1]; 50 ppm,100%
same,RCB control value (C.V.),[1]; 100 ppm,100%
"CO/N=C(/C(=O)OC)c1ccccc1COc1ccc(C=C(Cl)Cl)cc1Cl [Example 39, methyl-(E)-2-(2-((2-chloro-4-(2,2-dichlorovinyl)phenoxy)methyl)phenyl)-2-methoxyiminoacetate]",pest or weed control at 2 ppm,"Puccinia recondita; 2 ppm, read-out: WLR control value (C.V.)",100%
same,pest or weed control at 10 ppm,"Puccinia recondita; 10 ppm, read-out: WLR control value (C.V.)",100%
same,pest or weed control at 50 ppm,"Puccinia recondita; 50 ppm, read-out: WLR control value (C.V.)",100%
same,pest or weed control at 100 ppm,"Puccinia recondita; 100 ppm, read-out: WLR control value (C.V.)",100%
same,pest or weed control at 100 ppm,"Botrytis cinerae; Botrytis, read-out: CGM control value (C.V.)",75%
same,pest or weed control at 2 ppm,Rhizoctonia solani AG-1; [2],100%
same,pest or weed control at 10 ppm,Rhizoctonia solani AG-1; [2],100%
same,pest or weed control at 50 ppm,Rhizoctonia solani AG-1; [2],100%
same,pest or weed control at 100 ppm,Rhizoctonia solani AG-1; [2],100%
same,pest or weed control at 2 ppm,Phytophthora infestans; [3],100%
same,pest or weed control at 10 ppm,Phytophthora infestans; [3],100%
same,pest or weed control at 50 ppm,Phytophthora infestans; [3],100%
same,pest or weed control at 100 ppm,Phytophthora infestans; [3],100%
same,pest or weed control at 2 ppm,"Erysiphae graminis; Hordeum vulgare, 168 h, 2 ppm, read-out: BPM control value (C.V.)",100%
same,pest or weed control at 10 ppm,"Erysiphae graminis; Hordeum vulgare, 168 h, 10 ppm, read-out: BPM control value (C.V.)",100%
same,pest or weed control at 50 ppm,"Erysiphae graminis; Hordeum vulgare, 168 h, 50 ppm, read-out: BPM control value (C.V.)",100%
same,pest or weed control at 100 ppm,"Erysiphae graminis; Hordeum vulgare, 168 h, 100 ppm, read-out: BPM control value (C.V.)",100%
same,pest or weed control at 2 ppm,[1]; [4],100%
same,pest or weed control at 10 ppm,[1]; [4],100%
same,pest or weed control at 50 ppm,[1]; [4],100%
same,pest or weed control at 100 ppm,[1]; [4],100%
